Reference: patent US8796320B2, “1,3,4-Oxadiazole-2-carboxamide compound” (General Incorporated Association Pharma Valley Project …, priority 2009, dated 2014)

Experiments:
Assay type in all cases: cell-based
MDA-MB-468 = MDA-MB-468 cell growth inhibitory activity; conditions: Homo sapiens; compound at 20 μM; MDA-MB-468, 72 hours
Protocol: MDA-MB-468 diluted with phenol red-free DMEM/F-12 (GIBCO; 10% FBS, 20 units/ml penicillin/streptomycin) was inoculated at a concentration of 2000 cells/well to a 96-well plate (Greiner Bio-One) and cultured overnight at 37° C. in the presence of 5% CO2. Then, a test sample solution (containing 2 (v/v)% DMSO) adjusted to 10 μM was added thereto at a concentration of 10 μL/well and contacted with the cells at 37° C. for 72 hours in the presence of 5% CO2. Each well was washed three times with a medium. Then, after addition of 100 μL/well of a medium and 20 μL/well of CellTiter 96 AQueous, One Solution Reagent (Promega Corp.), the cells were incubated at 37° C. for 2 hours in the presence of 5% CO2. Absorbance at 495 nm was measured using Multiplate reader (Molecular Devices, Inc.), and the rate of inhibition of cell growth was calculated according to the following formula: Rate of inhibition of cell growth (%)=100−100×(Abschem−bkgd)/(AbsDMSO−bkgd) • Abschem: absorbance obtained by the addition of a test sample • AbsDMSO: absorbance obtained by the addition of only a solvent for test sample dissolution • bkgd: absorbance obtained by the addition of CellTiter 96 AQueous One Solution Reagent to a medium for cell culture
The test results were indicated in the rate of inhibition of cell growth by each compound at a concentration of 20 μM.

STAT3 = STAT3 transcription inhibition test (reporter gene method); conditions: Homo sapiens; compound at 100 μM; STAT3 reporter HeLa stable cell line, oncostatin M 10 ng/mL, 4 hours; read-out: STAT3 transcription inhibitory activity (%)
Protocol: The inhibition of STAT3 transcription was evaluated by using STAT3 reporter HeLa stable cell line (Panomics Inc., catalog No. RC0003), a cell line for the reporter gene method, and performing the following method according to the appendix included therein.
STAT3, reporter HeLa stable cell line subcultured and maintained in a Dulbecco's modified Eagle's medium (DMEM) containing 10% fetal bovine serum, 100 units/mL penicillin, and 100 μg/mL streptomycin was inoculated at a concentration of 40000 cells/well to a 96-well plate (white) and attached to the plate by overnight incubation at 37° C. under 5% CO2. After addition of each evaluation compound adjusted to various concentrations (adjusted with a DMSO solution), the cells were precultured for 1 hour. Then, oncostatin M for activating STAT3 was added at a final concentration 10 ng/mL, and the cells were further cultured at 37° C. under 5% CO2 for 4 hours. Luciferase activity derived from the cells was determined using Steady-Glo Luciferase Assay System (Promega Corp.), and STAT3 transcriptional activity scores were calculated according to the following formula: STAT3 transcriptional activity score (%)=100×(Lchem−L0)/(LDMSO−L0) • L0: luminescence intensity obtained without stimulation with oncostatin M • Lchem: luminescence intensity obtained by the addition of a test sample • LDMSO: luminescence intensity obtained by the addition of only a solvent for dissolving a test sample
The test results were indicated in the rate of inhibition of STAT3 transcription by each compound at a concentration of 100 μM.

[1] = system: Human lymphoma SCC-3 cells; assay: SCC-3 cell growth inhibition test (MTT method); conditions: 72-hour culture
Protocol: Human lymphoma SCC-3 cells purchased from Japan Health Sciences Foundation were cultured for […] at a density of 5000 cells/well in a 96-well plate with RPMI1640 (Sigma-Aldrich Corp.) containing 10% fetal bovine serum (FBS; GIBCO) as a culture medium.
Simultaneously with cell inoculation, each test compound diluted to various concentrations with an RPMI medium was added to each well. After 72-hour culture, cell growth inhibitory activity was determined by the MTT method (J. Immunol. Methods, 1993, 65, 581-593) using a microplate reader (NJ-2300, BioTek Instruments, Inc.).
The test results were indicated in a concentration (IC50) at which 50% cell growth was inhibited.

Row | Compound | inhibition at 20 µM (MDA-MB-468) [%] | inhibition at 100 µM (STAT3) [%] | IC50 [1] [nM]
1 | O=C(Nc1nnc(-c2ccco2)o1)c1cccc(-c2cccc([N+](=O)[O-])c2)c1 [Compound Ia-5, N-[5-(2-Furyl)-1,3,4-oxadiazol-2-yl]-3′-nitro-3-biphenylcarboxamide] | 88 | 98 | 
2 | O=C(Nc1nnc(-c2ccco2)o1)c1cccc(-c2ccc(Cl)cc2)c1 [Compound Ia-11, 4′-Chloro-N-[5-(2-furyl)-1,3,4-oxadiazol-2-yl]-3-biphenylcarboxamide] |  | 67 | 1800
3 | Cc1ccc(-c2cccc(C(=O)Nc3nnc(-c4ccco4)o3)c2)cc1 [Compound Ia-12, N-[5-(2-Furyl)-1,3,4-oxadiazol-2-yl]-4′-methyl-3-biphenylcarboxamide] | 61 | 83 | 
4 | C=Cc1ccc(-c2cccc(C(=O)Nc3nnc(-c4ccco4)o3)c2)cc1 [Compound Ia-13, N-[5-(2-Furyl)-1,3,4-oxadiazol-2-yl]-4′-vinyl-3-biphenylcarboxamide] |  | 67 | 1000
5 | CC(=O)c1ccc(-c2cccc(C(=O)Nc3nnc(-c4ccco4)o3)c2)cc1 [Compound Ia-18, 4′-Acetyl-N-[5-(2-furyl)-1,3,4-oxadiazol-2-yl]-3-biphenylcarboxamide] |  | 71 | 1900
6 | O=C(Nc1nnc(-c2ccco2)o1)c1cccc(-c2ccc(C(=O)c3ccccc3)cc2)c1 [Compound Ia-19, 4′-Benzoyl-N-[5-(2-furyl)-1,3,4-oxadiazol-2-yl]-3-biphenylcarboxamide] | 94 | 55 | 
7 | O=C(Nc1nnc(-c2ccco2)o1)c1cccc(-c2ccc([N+](=O)[O-])cc2)c1 [Compound Ia-24, N-[5-(2-Furyl)-1,3,4-oxadiazol-2-yl]-4′-nitro-3-biphenylcarboxamide] | 97 | 94 | 
8 | Cc1cc(C#N)ccc1-c1cccc(C(=O)Nc2nnc(-c3ccco3)o2)c1 [Compound Ia-29, 4′-Cyano-N-[5-(2-furyl)-1,3,4-oxadiazol-2-yl]-2′-methyl-3-biphenylcarboxamide] | 87 | 81 | 
9 | O=C(Nc1nnc(-c2ccco2)o1)c1cccc(-c2ccc3ccccc3c2)c1 [Compound Ia-33, N-[5-(2-Furyl)-1,3,4-oxadiazol-2-yl]-3-(2-naphthyl)benzenecarboxamide] | 98 | 90 | 
10 | O=C(Nc1nnc(-c2ccco2)o1)c1cccc(-c2ccc3sccc3c2)c1 [Compound Ia-47, 3-(5-Benzothienyl)-N-[5-(2-furyl)-1,3,4-oxadiazol-2-yl]benzenecarboxamide] | 53 | 58 | 
11 | Cn1ccc2cc(-c3cc(F)cc(C(=O)Nc4nnc(-c5ccco5)o4)c3)ccc21 [Compound Ia-52, 5-Fluoro-N-[5-(2-furyl)-1,3,4-oxadiazol-2-yl]-3-(1-methyl-5-indolyl)benzenecarboxamide] | 91 | 71 | 
12 | O=C(Nc1nnc(-c2ccco2)o1)c1cc(-c2ccc(Cl)cc2)nc(-c2ccc(Br)cc2)c1 [Compound Ia-56, 2-(4-Bromophenyl)-6-(4-chlorophenyl)-N-[5-(2-furyl)-1,3,4-oxadiazol-2-yl]-4-pyridinecarboxamide] | 61 | 87 | 
13 | C[Si](C)(C)c1ccc(-c2cccc(C(=O)Nc3nnc(-c4ccco4)o3)c2)cc1 [Compound Ia-62, N-[5-(2-Furyl)-1,3,4-oxadiazol-2-yl]-4′-trimethylsilyl-3-biphenylcarboxamide] | 71 | 76 | 
14 | O=C(Nc1nnc(-c2ccco2)o1)c1cccc(-c2ccc(Oc3ccccc3)cc2)c1 [Compound Ia-66, N-[5-(2-Furyl)-1,3,4-oxadiazol-2-yl]-4′-phenoxy-3-biphenylcarboxamide] | 59 | 58 | 
15 | COC(=O)c1ccc(-c2cccc(C(=O)Nc3nnc(-c4ccco4)o3)c2)cc1 [Compound Ia-69, N-[5-(2-Furyl)-1,3,4-oxadiazol-2-yl]-4′-methoxycarbonyl-3-biphenylcarboxamide] | 69 | 53 | 
16 | O=C(Nc1nnc(-c2ccco2)o1)c1cccc(-c2ccc(-c3ccc(Cl)cc3)cc2)c1 [Compound Ia-77, 4″-Chloro-N-[5-(2-furyl)-1,3,4-oxadiazol-2-yl]-3-(p-terphenyl)carboxamide] | 76 | 80 | 
17 | CC(C)Oc1ccc(-c2ccc(-c3cccc(C(=O)Nc4nnc(-c5ccco5)o4)c3)cc2)cc1 [Compound Ia-81, N-[5-(2-Furyl)-1,3,4-oxadiazol-2-yl]-4″-isopropoxy-3-(p-terphenyl)carboxamide] | 78 | 63 | 
18 | O=C(Nc1nnc(-c2ccco2)o1)c1cccc(-c2ccc(-c3cccc4ccccc34)cc2)c1 [Compound Ia-82, N-[5-(2-Furyl)-1,3,4-oxadiazol-2-yl]-4′-(1-naphthyl)-3-biphenylcarboxamide] | 75 | 54 | 
19 | O=C(Nc1nnc(-c2ccco2)o1)c1cccc(-c2cnc3ccccc3c2)c1 [Compound Ia-99, N-[5-(2-Furyl)-1,3,4-oxadiazol-2-yl]-3-(3-quinolyl)benzenecarboxamide] | 55 | 78 | 
20 | O=C(Nc1nnc(-c2ccco2)o1)c1cc(-c2cccc(Cl)c2)nc2nc(N3CCCCC3)sc12 [Compound Ib-2, 5-(3-Chlorophenyl)-N-[5-(2-furyl)-1,3,4-oxadiazol-2-yl]-2-piperidino-7-thiazolo[4,5-b]pyridinecarboxamide] | > 100 | 68 | 
21 | Cc1ccc(-c2cc(C(=O)Nc3nnc(-c4ccco4)o3)c3sc(N4CCCCC4)nc3n2)cc1 [Compound Ib-3, N-[5-(2-Furyl)-1,3,4-oxadiazol-2-yl]-5-(4-methylphenyl)-2-piperidino-7-thiazolo[4,5-b]pyridinecarboxamide] | > 100 | > 100 | 
22 | O=C(Nc1nnc(-c2ccsc2)o1)c1cc(-c2ccccc2)nc2nc(N3CCCCC3)sc12 [Compound Ib-19, 5-Phenyl-2-piperidino-N-[5-(3-thienyl)-1,3,4-oxadiazol-2-yl]-7-thiazolo[4,5-b]pyridinecarboxamide] | 83 | 90 | 
23 | O=C(Nc1nnc(-c2ccco2)o1)c1cc(-c2cccs2)nc2nc(N3CCCC3)sc12 [Compound Ib-26, N-[5-(2-Furyl)-1,3,4-oxadiazol-2-yl]-2-(1-pyrrolidinyl)-5-(2-thienyl)-7-thiazolo[4,5-b]pyridinecarboxamide] | 76 | 60 | 
24 | O=C(Nc1nnc(-c2ccco2)o1)c1cc(-c2cccs2)nc2nc(N3CCCCC3)sc12 [Compound Ib-27, N-[5-(2-Furyl)-1,3,4-oxadiazol-2-yl]-2-piperidino-5-(2-thienyl)-7-thiazolo[4,5-b]pyridinecarboxamide] | 82 | 67 | 
25 | O=C(Nc1nnc(-c2ccco2)o1)c1cc(-c2ccccc2)nc2nc(N3CCSCC3)sc12 [Compound Ib-30, N-[5-(2-Furyl)-1,3,4-oxadiazol-2-yl]-5-phenyl-2-(4-thiomorpholinyl)-7-thiazolo[4,5-b]pyridinecarboxamide] | 84 | > 100 | 
26 | O=C(Nc1nnc(-c2ccco2)o1)c1cc(-c2ccccc2)nc2nc(N3CCC(F)(F)CC3)sc12 [Compound Ib-32, 2-(4,4-Difluoropiperidino)-N-[5-(2-furyl)-1,3,4-oxadiazol-2-yl]-5-phenyl-7-thiazolo[4,5-b]pyridinecarboxamide] | 86 | 80 | 
